# Experimental data taken from patent US5919901A (priority 1996, dated 1999).
# How the values were obtained:
# Adult male Wistar rats = assay: In vivo feeding after ICV injection, rodent chow consumed in 2 hours; parameters: species or system rat; settings: for Feeding (g/2 h): rats, ICV, 1-6 nmoles peptide, chow consumed in 2 hours, saline <3 g/2 hours
# Experimental: Adult male Wistar rats were surgically implanted with a chronic intracerebral ventricular (ICV) cannula (Plastic Products, Roanoke, Va.) using a stereotaxic instrument. Several days after the surgery, 1-6 nmoles of each peptide (or saline) was injected into the lateral ventricle of 4-12 rats in a volume of 5-10 μl The quantity of rodent chow consumed in a 2 hour period was measured.
# Rat Y4/PP1 (clone) = Rat Y4/PP1 (clone) (Rattus norvegicus, UniProt Q63447); assay: Rat Y4/PP1 [125I]PP binding assay
# Rat Y4/PP1 (clone), sequence (Q63447 whole entry): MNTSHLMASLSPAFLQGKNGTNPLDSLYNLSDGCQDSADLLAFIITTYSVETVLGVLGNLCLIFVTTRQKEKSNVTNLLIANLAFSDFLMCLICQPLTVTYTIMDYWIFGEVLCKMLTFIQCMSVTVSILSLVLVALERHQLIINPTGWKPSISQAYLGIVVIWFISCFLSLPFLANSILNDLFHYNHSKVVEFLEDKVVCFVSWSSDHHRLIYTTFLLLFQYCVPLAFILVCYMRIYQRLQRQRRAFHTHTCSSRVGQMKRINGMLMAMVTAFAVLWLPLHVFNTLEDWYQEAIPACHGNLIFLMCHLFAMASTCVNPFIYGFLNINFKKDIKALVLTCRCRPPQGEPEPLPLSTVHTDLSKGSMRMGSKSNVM
affinity for the rat Y4/PP1 receptor (Rat Y4/PP1 (clone)),Structure (SMILES),Feeding (g/2 h) (Adult male Wistar rats),feeding response in rats (Adult male Wistar rats; administered ICV to rats)
,"CC[C@H](C)[C@H](NC(=O)[C@H](Cc1ccc(O)cc1)NC(=O)[C@H](CCCNC(=N)N)NC(=O)[C@H](CCCNC(=N)N)NC(=O)[C@H](CC(C)C)NC(=O)[C@H](CC(=O)O)NC(=O)[C@H](C)NC(=O)[C@H](C)NC(=O)[C@H](Cc1ccc(O)cc1)NC(=O)[C@H](CCC(N)=O)NC(=O)[C@H](C)NC(=O)[C@H](CCSC)NC(=O)[C@H](CCC(N)=O)NC(=O)[C@H](CCC(=O)O)NC(=O)[C@@H]1CCCN1C(=O)[C@@H](NC(=O)[C@H](C)NC(=O)[C@H](CC(N)=O)NC(=O)[C@H](CC(=O)O)NC(=O)CNC(=O)[C@@H]1CCCN1C(=O)[C@H](Cc1ccc(O)cc1)NC(=O)[C@@H](NC(=O)[C@@H]1CCCN1C(=O)[C@H](CCC(=O)O)NC(=O)[C@H](CC(C)C)NC(=O)[C@@H]1CCCN1C(=O)[C@H](C)N)C(C)C)[C@@H](C)O)C(=O)N[C@@H](CC(N)=O)C(=O)N[C@@H](CCSC)C(=O)N[C@@H](CC(C)C)C(=O)N[C@H](C(=O)N[C@@H](CCCNC(=N)N)C(=O)N1CCC[C@H]1C(=O)N[C@@H](CCCNC(=N)N)C(=O)N[C@@H](Cc1ccc(O)cc1)C(N)=O)[C@@H](C)O [hPP, pancreatic polypeptide]",> 5,
,"CC[C@H](C)[C@H](NC(=O)[C@H](Cc1ccc(O)cc1)NC(=O)[C@H](Cc1c[nH]cn1)NC(=O)[C@H](CCCNC(=N)N)NC(=O)[C@H](CC(C)C)NC(=O)[C@H](C)NC(=O)[C@@H](N)CO)C(=O)N[C@@H](CC(N)=O)C(=O)N[C@@H](CC(C)C)C(=O)N[C@H](C(=O)N[C@H](C(=O)N[C@@H](CCCNC(=N)N)C(=O)N[C@@H](CCC(N)=O)C(=O)N[C@@H](CCCNC(=N)N)C(=O)N[C@@H](Cc1ccc(O)cc1)C(N)=O)[C@@H](C)O)[C@@H](C)CC [r/h(22-36)NPY, (22-36)NPY]",< 3,
,"CC[C@H](C)[C@H](NC(=O)[C@H](Cc1ccc(O)cc1)NC(=O)[C@@H](N)Cc1c[nH]cn1)C(=O)N[C@@H](CC(N)=O)C(=O)N[C@@H](CC(C)C)C(=O)N[C@H](C(=O)N[C@H](C(=O)N[C@@H](CCCNC(=N)N)C(=O)N[C@@H](CCC(N)=O)C(=O)N[C@@H](CCCNC(=N)N)C(=O)N[C@@H](Cc1ccc(O)cc1)C(N)=O)[C@@H](C)O)[C@@H](C)CC [r/h(26-36)NPY, (26-36)NPY]",< 3,
very high affinity,"CC[C@H](C)[C@H](NC(=O)[C@H](Cc1ccc(O)cc1)NC(=O)[C@H](CCCNC(=N)N)NC(=O)[C@H](CCCNC(=N)N)NC(=O)[C@H](CC(C)C)NC(=O)[C@H](CC(=O)O)NC(=O)[C@H](C)NC(=O)[C@H](C)NC(=O)[C@H](Cc1ccc(O)cc1)NC(=O)[C@H](CCC(N)=O)NC(=O)[C@H](C)NC(=O)[C@H](CCSC)NC(=O)[C@H](CCC(N)=O)NC(=O)[C@H](CCC(=O)O)NC(=O)[C@@H]1CCCN1C(=O)[C@@H](NC(=O)[C@H](C)NC(=O)[C@H](CC(N)=O)NC(=O)[C@H](CC(=O)O)NC(=O)CNC(=O)[C@@H]1CCCN1C(=O)[C@H](Cc1ccc(O)cc1)NC(=O)[C@@H](NC(=O)[C@@H]1CCCN1C(=O)[C@H](CCC(=O)O)NC(=O)[C@H](CC(C)C)NC(=O)[C@@H]1CCCN1C(=O)[C@H](C)N)C(C)C)[C@@H](C)O)C(=O)N[C@@H](CC(N)=O)C(=O)N[C@@H](CCSC)C(=O)N[C@@H](CC(C)C)C(=O)N[C@H](C(=O)N[C@@H](CCCNC(=N)N)C(=O)N1CCC[C@H]1C(=O)N[C@@H](CCCNC(=N)N)C(=O)N[C@@H](Cc1ccc(O)cc1)C(N)=O)[C@@H](C)O [rPP, pancreatic polypeptide]",< 3,does not induce much feeding
